Target: T1, human NHE-1 (Homo sapiens, UniProt P19634)
T1 construct: expressed in transfected cells; host or cells: LAP-1 (NHE-deficient parental cell line), stably transfected, G418 selection
Test: FLIPR assay of pHi recovery for NHE-1 inhibition
Assay type: cell-based
Conditions: transfected LAP-1 cell line expressing human NHE-1, BCECF pHi recovery, read-out: NHE1 inhibition IC50
Experimental: The inhibitory concentration IC50 for NHE-1 inhibition was determined as follows:
IC50 for NHE-1 inhibition were determined in a FLIPR assay by measurement of the recovery in pHi in transfected cell lines which express human NHE-1.
The assay was carried out in an FLIPR (fluorescent imaging plate reader) with black-walled 96-well microtiter plates with clear bases.
The growth medium for the transfected cells (Iscove+10% fetal calf serum) additionally contained G418 as selection antibiotic in order to ensure the presence of the transfected sequences.
The actual assay started with the removal of the growth medium and addition of 100 μl of loading buffer per well (5 μM BCECF-AM [2′,7′-bis(carboxyethyl)-5-(and -6-)carboxyfluorescein, acetoxymethyl ester] in 20 mM NH4Cl, 115 mM choline chloride, 1 mM MgCl2, 1 mM CaCl2, 5 mM KCl, 20 mM HEPES, 5 mM glucose; pH 7.4 [adjusted with KOH]). The cells were then incubated at 37° C. for 20 minutes. This incubation led to loading of the cells with the fluorescent dye whose fluorescence intensity depends on pHi, and with NH4Cl which makes the cells slightly alkaline. The nonfluorescent dye precursor BCECF-AM is, as ester, membrane-permeable. The actual dye BCECF is not membrane-permeable but is liberated inside cells by esterases. […]

T1 sequence (P19634 whole entry): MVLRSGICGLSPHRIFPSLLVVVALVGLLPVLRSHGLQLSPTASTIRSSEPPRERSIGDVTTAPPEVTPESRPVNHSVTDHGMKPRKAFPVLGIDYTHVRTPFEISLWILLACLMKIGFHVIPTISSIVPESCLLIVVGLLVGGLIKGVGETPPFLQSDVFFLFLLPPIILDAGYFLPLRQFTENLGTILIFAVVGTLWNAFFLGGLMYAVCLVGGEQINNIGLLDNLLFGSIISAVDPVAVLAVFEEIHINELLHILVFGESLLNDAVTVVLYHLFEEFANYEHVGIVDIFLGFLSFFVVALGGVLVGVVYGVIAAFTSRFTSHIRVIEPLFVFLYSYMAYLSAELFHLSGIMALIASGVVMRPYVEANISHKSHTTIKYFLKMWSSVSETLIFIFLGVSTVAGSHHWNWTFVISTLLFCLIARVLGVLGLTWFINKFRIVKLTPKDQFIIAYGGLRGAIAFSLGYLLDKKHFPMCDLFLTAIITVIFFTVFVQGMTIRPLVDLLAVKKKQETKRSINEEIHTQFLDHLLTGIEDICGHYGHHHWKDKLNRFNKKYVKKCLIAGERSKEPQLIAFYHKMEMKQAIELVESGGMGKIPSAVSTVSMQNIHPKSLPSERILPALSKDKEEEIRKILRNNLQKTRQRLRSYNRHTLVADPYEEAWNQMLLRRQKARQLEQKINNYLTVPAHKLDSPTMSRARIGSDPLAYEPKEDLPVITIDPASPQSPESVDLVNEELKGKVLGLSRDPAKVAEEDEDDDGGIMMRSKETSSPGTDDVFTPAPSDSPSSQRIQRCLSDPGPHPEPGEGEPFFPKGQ

## Cc1cc(Oc2ccc(S(C)(=O)=O)c(S(F)(F)(F)(F)F)c2)c(S(C)(=O)=O)cc1C(=O)N=C(N)N [Example 1, N-[5-methanesulfonyl-4-(4-methanesulfonyl-3-pentafluorosulfanyl-phenoxy)-2-methylbenzoyl]guanidine]
  IC50: 33 nM

Source: US7446225B2, “Pentafluorosulfanylphenyl-substituted benzoylguanidines, method for the production thereof, their use as a medicament or diagnostic agent, and a medicament containing these compounds” (Sanofi-aventis Deutschland GmbH, priority 2004, dated 2008)
